Test results taken from patent US9179694B2, “Method and composition for enhancing milk production and milk component concentrations” (PURINA ANIMAL NUTRITION LLC, priority 2003, dated 2015).

Test: Dry matter feed intake in sorbitol feeding trials
Format: in vivo, Holstein cows
Settings: for increase in dry matter feed intake: Pre-Partum Trial #1 (75 g/day wk −3..−1 only) versus Control Trial #1
Protocol: To determine the dry matter weight (or dry matter basis or dry basis) of a particular sample, the sample is first weighed. The weighed sample is then dried in an oven at a temperature that is adequate to drive off moisture from the sample without degrading the sample components, such as a temperature ranging from about 100° C. to about 110° C. The oven drying is continued until the weight of the dried sample remains constant, despite additional oven drying. During the pre-partum period, for all cows utilized in Example One or Example Two, the pre-partum control feed, as modified to include any sorbitol indicated above for the different trials, was placed in the feeding troughs of the different cows participating in the different trials once daily in the morning. Thereafter, these different pre-partum feeds (the pre-partum control feed, including any incorporated sorbitol dosage of a particular trial during the pre-partum period) of the different trials were lightly stirred, separately and individually, in front of the cows of the different trials three times per day during the pre-partum period to encourage additional feed ingestion by the cows. Leftover rations from the previous day's feeding were collected and weighed from each feeding trough during the pre-partum period, prior to feeding the test cows on a subsequent day. The cows of the different trials received a sufficient amount of the pre-partum to ensure at least about ten weight percent of the pre-partum feeds of the different trials remained in the feeding troughs of each trial each day of the pre-partum period, based on the amount of the different pre-partum feeds of the different trials provided at the beginning of each day. Feed refusals were measured daily during the pre-partum period, and water was supplied ad libitum. During the early post-partum period, for all cows utilized in Example One or Example Two, the first post-partum control feed, as modified to include any sorbitol indicated above for the different trials, was placed in the feeding troughs of the different cows participating in the different trials once daily in the morning. Thereafter, these first post-partum feeds (the first post-partum control feed, including any incorporated sorbitol dosage of a particular trial during the early post-partum period) of the different trials were lightly stirred, separately and individually, in front of the cows of the different trials three times per day during the early post-partum period to encourage additional feed ingestion by the cows. Leftover rations from the previous day's feeding were collected and weighed from each feeding trough during the early post-partum period, prior to feeding the test cows on a subsequent day. The cows of the different trials received a sufficient amount of the first post-partum feed to ensure at least about ten weight percent of the first post-partum feeds of the different trials remained in the feeding troughs of each trial each day of the early post-partum period, based on the amount of the different first post-partum feeds of the different trials provided at the beginning of each day. Feed refusals were measured daily during the early post-partum period, and water was supplied ad libitum. […] Thereafter, the second post-partum control feed were lightly stirred, separately and individually, in front of the cows of the different trials three times per day during the weeks +5 through +8 to encourage additional feed ingestion by the cows. Leftover rations from the previous day's feeding were collected and weighed from each feeding trough during weeks +5 through +8, prior to feeding the test cows on a subsequent day. […]

OC[C@@H](O)[C@@H](O)[C@H](O)[C@@H](O)CO [sorbitol]
Dry Matter Feed Intake (Pre-Partum Trial #1 (75/0/0 g/day in wk −3..−1/+1..+4/+5..+8), multiparious cows, weeks +1 through +8): 44.5 lbs/day | Dry Matter Feed Intake (Pre-Partum Trial #1 (75/0/0 g/day in wk −3..−1/+1..+4/+5..+8), multiparious cows, weeks −3 through −1): 29.9 lbs/day | Dry Matter Feed Intake (Pre-Partum Trial #1 (75/0/0 g/day in wk −3..−1/+1..+4/+5..+8), primiparious cows, weeks +1 through +8): 34.2 lbs/day | Dry Matter Feed Intake (Pre-Partum Trial #1 (75/0/0 g/day in wk −3..−1/+1..+4/+5..+8), primiparious cows, weeks −3 through −1): 17.8 lbs/day | increase in dry matter feed intake (multiparious cows, weeks +1 through +8): +9.6% | increase in dry matter feed intake (primiparious cows, weeks +1 through +8): +7.9% | Dry Matter Intake (Pre-Partum Trial #2 (75/0/100 g/day in wk −3..−1/+1..+4/+5..+8), multiparious cows, week +1): 32.7 lbs/day | Change in Dry Matter Feed Intake (Pre-Partum Trial #2 (75/0/100 g/day in wk −3..−1/+1..+4/+5..+8), multiparious cows, week +1 versus −1): 1.97 lbs/day | Dry Matter Intake (Pre-Partum Trial #2 (75/0/100 g/day in wk −3..−1/+1..+4/+5..+8), multiparious cows, week +2): 42.5 lbs/day | Dry Matter Intake (Pre-Partum Trial #2 (75/0/100 g/day in wk −3..−1/+1..+4/+5..+8), multiparious cows, week +3): 46.2 lbs/day | Dry Matter Intake (Pre-Partum Trial #2 (75/0/100 g/day in wk −3..−1/+1..+4/+5..+8), multiparious cows, week +4): 50.1 lbs/day | Dry Matter Intake (Pre-Partum Trial #2 (75/0/100 g/day in wk −3..−1/+1..+4/+5..+8), multiparious cows, week +5): 52.4 lbs/day | Dry Matter Intake (Pre-Partum Trial #2 (75/0/100 g/day in wk −3..−1/+1..+4/+5..+8), multiparious cows, week +6): 53.9 lbs/day | Dry Matter Intake (Pre-Partum Trial #2 (75/0/100 g/day in wk −3..−1/+1..+4/+5..+8), multiparious cows, week +7): 56.1 lbs/day | Dry Matter Intake (Pre-Partum Trial #2 (75/0/100 g/day in wk −3..−1/+1..+4/+5..+8), multiparious cows, week +8): 53.8 lbs/day | Dry Matter Intake (Pre-Partum Trial #2 (75/0/100 g/day in wk −3..−1/+1..+4/+5..+8), multiparious cows, week −1): 30.7 lbs/day | Dry Matter Intake (Pre-Partum Trial #2 (75/0/100 g/day in wk −3..−1/+1..+4/+5..+8), multiparious cows, week −2): 33.5 lbs/day | Change in Dry Matter Feed Intake (Pre-Partum Trial #2 (75/0/100 g/day in wk −3..−1/+1..+4/+5..+8), multiparious cows, week −2 versus −1): −2.88 lbs/day | Dry Matter Intake (Pre-Partum Trial #2 (75/0/100 g/day in wk −3..−1/+1..+4/+5..+8), multiparious cows, week −3): 30.9 lbs/day | Dry Matter Intake (Pre-Partum Trial #2 (75/0/100 g/day in wk −3..−1/+1..+4/+5..+8), multiparious cows, weeks +1 through +4): 42.9 lbs/day | Dry Matter Intake (Pre-Partum Trial #2 (75/0/100 g/day in wk −3..−1/+1..+4/+5..+8), multiparious cows, weeks +1 through +8): 48.4 lbs/day | Dry Matter Intake (Pre-Partum Trial #2 (75/0/100 g/day in wk −3..−1/+1..+4/+5..+8), multiparious cows, weeks +5 through +8): 54.2 lbs/day | Dry Matter Intake (Pre-Partum Trial #2 (75/0/100 g/day in wk −3..−1/+1..+4/+5..+8), multiparious cows, weeks −3 through −1): 31.8 lbs/day | decrease in dry matter feed intake (Pre-Partum Trial #2 (75 g/day pre-partum) versus Control Trial #2, multiparious cows, pre-partum period (weeks −3 through −1)): 7.0% | Dry Matter Intake (Pre/Post Trial #1 (150/125/100 g/day in wk −3..−1/+1..+4/+5..+8), multiparious cows, week +1): 36.6 lbs/day | Dry Matter Feed Intake (Pre/Post Trial #1 (150/125/100 g/day in wk −3..−1/+1..+4/+5..+8), multiparious cows, week +1, two-trial comparison with Control Trial #2 (Table 22)): 36.7 lbs/day | Change in Dry Matter Feed Intake (Pre/Post Trial #1 (150/125/100 g/day in wk −3..−1/+1..+4/+5..+8), multiparious cows, week +1 versus −1): 3.37 lbs/day | Change in Dry Matter Feed Intake (Pre/Post Trial #1 (150/125/100 g/day in wk −3..−1/+1..+4/+5..+8), multiparious cows, week +1 versus −1, two-trial comparison with Control Trial #2 (Table 22)): 3.35 lbs/day | Dry Matter Intake (Pre/Post Trial #1 (150/125/100 g/day in wk −3..−1/+1..+4/+5..+8), multiparious cows, week +2): 45.3 lbs/day | Dry Matter Feed Intake (Pre/Post Trial #1 (150/125/100 g/day in wk −3..−1/+1..+4/+5..+8), multiparious cows, week +2, two-trial comparison with Control Trial #2 (Table 22)): 45.6 lbs/day | Dry Matter Intake (Pre/Post Trial #1 (150/125/100 g/day in wk −3..−1/+1..+4/+5..+8), multiparious cows, week +3): 48.5 lbs/day | Dry Matter Feed Intake (Pre/Post Trial #1 (150/125/100 g/day in wk −3..−1/+1..+4/+5..+8), multiparious cows, week +3, two-trial comparison with Control Trial #2 (Table 22)): 48.8 lbs/day | Dry Matter Intake (Pre/Post Trial #1 (150/125/100 g/day in wk −3..−1/+1..+4/+5..+8), multiparious cows, week +4): 51.2 lbs/day | Dry Matter Feed Intake (Pre/Post Trial #1 (150/125/100 g/day in wk −3..−1/+1..+4/+5..+8), multiparious cows, week +4, two-trial comparison with Control Trial #2 (Table 22)): 51.5 lbs/day | Dry Matter Intake (Pre/Post Trial #1 (150/125/100 g/day in wk −3..−1/+1..+4/+5..+8), multiparious cows, week +5): 53.9 lbs/day | Dry Matter Feed Intake (Pre/Post Trial #1 (150/125/100 g/day in wk −3..−1/+1..+4/+5..+8), multiparious cows, week +5, two-trial comparison with Control Trial #2 (Table 22)): 54.2 lbs/day | Dry Matter Intake (Pre/Post Trial #1 (150/125/100 g/day in wk −3..−1/+1..+4/+5..+8), multiparious cows, week +6): 53.7 lbs/day | Dry Matter Feed Intake (Pre/Post Trial #1 (150/125/100 g/day in wk −3..−1/+1..+4/+5..+8), multiparious cows, week +6, two-trial comparison with Control Trial #2 (Table 22)): 54.1 lbs/day | Dry Matter Intake (Pre/Post Trial #1 (150/125/100 g/day in wk −3..−1/+1..+4/+5..+8), multiparious cows, week +7): 54.5 lbs/day
